Test results reported in PMC5378332, “Molecular actions of two synthetic brassinosteroids, iso-carbaBL and 6-deoxoBL, which cause altered physiological activities between Arabidopsis and rice” (PLoS ONE, 2017).

Assays:
rice BRI1 LRR17-ID-LRR18 = target: T1, rice BRI1 LRR17-ID-LRR18 (Oryza sativa, UniProt Q942F3); experiment: competition with BPCS photoaffinity crosslinking, anti-biotin immunoblot; type: binding; conditions: dose-dependent competition; GST-normalised
T1 construct: extracellular LRR17-island domain-LRR18 fragment, amino acids 484-600; N-terminal GST fusion from pGEX6P-1, GST kept; glutathione-Sepharose purified
T1 sequence (Q942F3 484-600): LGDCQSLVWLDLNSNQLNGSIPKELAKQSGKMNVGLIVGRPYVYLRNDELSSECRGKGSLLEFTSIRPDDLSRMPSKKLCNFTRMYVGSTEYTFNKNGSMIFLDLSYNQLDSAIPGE

[1] = target: T2, Arabidopsis BRI1 LRR21-ID-LRR22 (Arabidopsis thaliana, UniProt O22476); experiment: as above; type: binding; conditions: dose-dependent competition; GST-normalised
T2 construct: extracellular LRR21-island domain-LRR22 fragment, amino acids 556-673; N-terminal GST fusion from pGEX6P-1, GST kept; glutathione-Sepharose purified
T2 sequence (O22476 556-673): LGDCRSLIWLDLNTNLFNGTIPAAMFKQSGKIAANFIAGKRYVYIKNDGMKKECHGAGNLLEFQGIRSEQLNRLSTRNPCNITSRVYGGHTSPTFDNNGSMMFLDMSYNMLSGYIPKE

| Compound | competition with BPCS photoaffinity crosslinking, anti-biotin immunoblot (rice BRI1 LRR17-ID-LRR18) | competition with BPCS photoaffinity crosslinking, anti-biotin immunoblot [1] |
| --- | --- | --- |
| CC(C)[C@H](C)[C@@H](O)[C@H](O)[C@@H](C)[C@H]1CC[C@H]2[C@@H]3COC(=O)[C@H]4C[C@H](O)[C@H](O)C[C@]4(C)[C@H]3CC[C@]12C [BL, (22R,23R,24S)-2α,3α,22,23-tetrahydroxy-24-methyl-B-homo7-oxa-5α-cholestan-6-one] | BL, the positive control, inhibited the binding of BPCS to both Arabidopsis and rice BRI1 |  |
| CC(C)[C@H](C)[C@@H](O)[C@H](O)[C@@H](C)[C@H]1CC[C@H]2[C@@H]3CC(=O)C[C@H]4C[C@@H](O)[C@@H](O)C[C@]4(C)[C@H]3CC[C@]12C [iso-carbaBL] | decreased the binding of BPCS not only to Arabidopsis BRI1, but also to rice BRI1 | decreased the binding of BPCS not only to Arabidopsis BRI1, but also to rice BRI1 |
